Results taken from patent US20240166660A1, “KRAS G12C INHIBITORS” (BeiGene Switzerland GmbH, priority 2021, published 2024).

Target: KRAS (aa 1-169) G12C, C51S, C80L, C118S (Homo sapiens (Human), UniProt P01116, C118S/C51S/C80L/G12C)
Test: Biochemical functional assay: SOS1-mediated nucleotide exchange of GDP-loaded KRAS G12C, binding to GST-cRaf RBD, FRET readout
Details: 3 hrs pre-incubation with compound at 24° C., SOS1, GTPyS
Procedure, shortened: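 GDP-loaded His-tagged KRAS construct preincubated with compound 3 h at 24° C in 25 mM HEPES pH7.5, 10 mM MgCl2, 0.01% Triton X-100; SOS1 (aa 564-1049), GTPγS and GST-cRaf RBD added for 3 h, then anti-His Tb cryptate/anti-GST XL665 for 3 h. HTRF 665/620 ratio; IC50 by four-parameter logistic fit.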

[1] = inhibition of nucleotide exchange

Sequence of KRAS (aa 1-169) G12C, C51S, C80L, C118S (P01116 other isoform, or with tags, fused parts or gaps G12C/C51S/C80L/C118S): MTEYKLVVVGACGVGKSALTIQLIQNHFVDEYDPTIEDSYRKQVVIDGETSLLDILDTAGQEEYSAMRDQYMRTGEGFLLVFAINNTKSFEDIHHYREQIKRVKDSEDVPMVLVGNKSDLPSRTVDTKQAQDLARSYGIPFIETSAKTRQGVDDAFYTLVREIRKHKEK

Compound: C=CC(=O)N1CCN(c2nc(N3CC(N(C)C)C3)nc3cc(-c4ccccc4C)c4c(c23)OCCC4)CC1 [Compound B18, 1-(4-(8-(3-(dimethylamino)azetidin-1-yl)-5-(o-tolyl)-3,4-dihydro-2H-pyrano[2,3-f]quinazolin-10-yl)piperazin-1-yl)prop-2-en-1-one]
- IC50 (bound in uM): > 10 µM

Compound: C=CC(=O)N1CCN(c2nc(N3CC(N(C)C)C3)nc3cc(-c4ccccc4C#N)c4c(c23)OCCC4)CC1 [Compound B19, 2-(10-(4-acryloylpiperazin-1-yl)-8-(3-(dimethylamino)azetidin-1-yl)-3,4-dihydro-2H-pyrano[2,3-f]quinazolin-5-yl)benzonitrile]
- IC50 (bound in uM): > 10 µM

Compound: C=C(F)C(=O)N1CCN(c2nc(OC[C@@H]3C[C@@H](OC)CN3C)nc3cc(-c4cccc5cccc(Cl)c45)c4ccoc4c23)C[C@@H]1CC#N [Compound B20, 2-((S)-4-(4-(8-chloronaphthalen-1-yl)-7-(((2S,4R)-4-methoxy-1-methylpyrrolidin-2-yl)methoxy)furo[2,3-f]quinazolin-9-yl)-1-(2-fluoroacryloyl)piperazin-2-yl)acetonitrile]
- IC50 [1]: 0.016 µM

Compound: C=CC(=O)N1CCN(c2nc(N3CC(N(C)C)C3)nc3cc(-c4ccccc4Cl)c4c(c23)OCCC4)CC1 [Compound B21, 1-(4-(5-(2-chlorophenyl)-8-(3-(dimethylamino)azetidin-1-yl)-3,4-dihydro-2H-pyrano[2,3-f]quinazolin-10-yl)piperazin-1-yl)prop-2-en-1-one]
- IC50 (bound in uM): > 10 µM

Compound: C=CC(=O)N1CCN(c2nc(N3CC(N(C)C)C3)nc3cc(-c4ccccc4C(F)(F)F)c4c(c23)OCCC4)CC1 [Compound B22, 1-(4-(8-(3-(dimethylamino)azetidin-1-yl)-5-(2-(trifluoromethyl)phenyl)-3,4-dihydro-2H-pyrano[2,3-f]quinazolin-10-yl)piperazin-1-yl)prop-2-en-1-one]
- IC50 [1]: 0.568 µM

Compound: C=CC(=O)N1CCN(c2nc(N(C)CCN(C)C)nc3cc(-c4cccc5cccc(Cl)c45)c4c(c23)OCCC4)CC1 [Compound B23, 1-(4-(5-(8-chloronaphthalen-1-yl)-8-((2-(dimethylamino)ethyl)(methyl)amino)-3,4-dihydro-2H-pyrano[2,3-f]quinazolin-10-yl)piperazin-1-yl)prop-2-en-1-one]
- IC50 [1]: 0.202 µM

Compound: C=CC(=O)N1CCN(c2nc(N3CCN(C)CC3)nc3cc(-c4cccc5cccc(Cl)c45)c4c(c23)OCCC4)CC1 [Compound B24, 1-(4-(5-(8-chloronaphthalen-1-yl)-8-(4-methylpiperazin-1-yl)-3,4-dihydro-2H-pyrano[2,3-f]quinazolin-10-yl)piperazin-1-yl)prop-2-en-1-one]
- IC50 (bound in uM): > 10 µM

Compound: C=CC(=O)N1CCN(c2nc(N3CCC(N(C)C)C3)nc3cc(-c4c(Cl)c(C)cc5[nH]ncc45)c4c(c23)OCCC4)CC1 (stereo not drawn) [Compound B25, 1-(4-(5-(5-chloro-6-methyl-1H-indazol-4-yl)-8-(3-(dimethylamino)pyrrolidin-1-yl)-3,4-dihydro-2H-pyrano[2,3-f]quinazolin-10-yl)piperazin-1-yl)prop-2-en-1-one]
- IC50 [1]: 0.138 µM

Compound: C=CC(=O)N1CCN(c2nc(N3CC(CN(C)C)C3)nc3cc(-c4cccc5cccc(Cl)c45)c4c(c23)OCCC4)CC1 [Compound B26, 1-(4-(5-(8-chloronaphthalen-1-yl)-8-(3-((dimethylamino)methyl)azetidin-1-yl)-3,4-dihydro-2H-pyrano[2,3-f]quinazolin-10-yl)piperazin-1-yl)prop-2-en-1-one]
- IC50 [1]: 0.239 µM

Compound: C=CC(=O)N1CCN(c2nc(OC[C@@H]3C[C@@H](F)CN3C)nc3cc(N4CCCc5ccccc54)c4c(c23)OCCC4)CC1 [Compound B27, 1-(4-(5-(3,4-dihydroquinolin-1(2H)-yl)-8-(((2S,4R)-4-fluoro-1-methylpyrrolidin-2-yl)methoxy)-3,4-dihydro-2H-pyrano[2,3-f]quinazolin-10-yl)piperazin-1-yl)prop-2-en-1-one]
- IC50 [1]: 0.321 µM

Compound: C=CC(=O)N1CCN(c2nc(OC[C@@H]3CCCN3C)nc3cc(-c4c(Cl)c(C)cc5[nH]ncc45)c4c(c23)OCC4)CC1 [Compound B28, 1-(4-(4-(5-chloro-6-methyl-1H-indazol-4-yl)-7-(((S)-1-methylpyrrolidin-2-yl)methoxy)-2,3-dihydrofuro[2,3-f]quinazolin-9-yl)piperazin-1-yl)prop-2-en-1-one]
- IC50 [1]: 0.113 µM

Compound: C=C(F)C(=O)N1CCN(c2nc(OC[C@@H]3CCCN3C)nc3cc(-c4ccc(F)c5sc(N)nc45)c4c(c23)OCCC4)C[C@@H]1CC#N [Compound B29, 2-((S)-4-(5-(2-amino-7-fluorobenzo[d]thiazol-4-yl)-8-(((S)-1-methylpyrrolidin-2-yl)methoxy)-3,4-dihydro-2H-pyrano[2,3-f]quinazolin-10-yl)-1-(2-fluoroacryloyl)piperazin-2-yl)acetonitrile]
- IC50 [1]: 0.00451 µM

Compound: C=C(F)C(=O)N1CCN(c2nc(OC[C@@H]3CCCN3C)nc3cc(-c4c(Cl)c(C)cc5[nH]ncc45)c4c(c23)OCC4)C[C@@H]1CC#N [Compound B30, 2-((2S)-4-(4-(5-chloro-6-methyl-1H-indazol-4-yl)-7-(((S)-1-methylpyrrolidin-2-yl)methoxy)-2,3-dihydrofuro[2,3-f]quinazolin-9-yl)-1-(2-fluoroacryloyl)piperazin-2-yl)acetonitrile]
- IC50 [1]: 0.0096 µM

Compound: C=C(F)C(=O)N1CCN(c2nc(OC[C@@H]3CCCN3C)nc3cc(-c4ccccc4F)c4c(c23)OCCC4)C[C@@H]1CC#N [Compound B31, 2-((S)-1-(2-fluoroacryloyl)-4-(5-(2-fluorophenyl)-8-(((S)-1-methylpyrrolidin-2-yl)methoxy)-3,4-dihydro-2H-pyrano[2,3-f]quinazolin-10-yl)piperazin-2-yl)acetonitrile]
- IC50 [1]: 0.984 µM

Compound: C=C(F)C(=O)N1CCN(c2nc(OC[C@@H]3CCCN3C)nc3cc(-c4ccccc4C4CC4)c4c(c23)OCCC4)C[C@@H]1CC#N [Compound B32, 2-((S)-4-(5-(2-cyclopropylphenyl)-8-(((S)-1-methylpyrrolidin-2-yl)methoxy)-3,4-dihydro-2H-pyrano[2,3-f]quinazolin-10-yl)-1-(2-fluoroacryloyl)piperazin-2-yl)acetonitrile]
- IC50 [1]: 0.226 µM

Compound: C=C(F)C(=O)N1CCN(c2nc(OC[C@@H]3CCCN3C)nc3cc(-c4ccccc4C(F)(F)F)c4c(c23)OCCC4)C[C@@H]1CC#N [Compound B33, 2-((S)-1-(2-fluoroacryloyl)-4-(8-(((S)-1-methylpyrrolidin-2-yl)methoxy)-5-(2-(trifluoromethyl)phenyl)-3,4-dihydro-2H-pyrano[2,3-f]quinazolin-10-yl)piperazin-2-yl)acetonitrile]
- IC50 [1]: 0.051 µM

Compound: C=CC(=O)N1CCN(c2nc(OC[C@@H]3CCCN3C)nc3cc(-c4c(Cl)c(C)cc5[nH]ncc45)c4ccoc4c23)CC1 [Compound B34, 1-(4-(4-(5-chloro-6-methyl-1H-indazol-4-yl)-7-(((S)-1-methylpyrrolidin-2-yl)methoxy)furo[2,3-f]quinazolin-9-yl)piperazin-1-yl)prop-2-en-1-one]
- IC50 [1]: 0.065 µM

Compound: C=C(F)C(=O)N1CCN(c2nc(OC[C@@H]3CCCN3C)nc3cc(-c4c(Cl)c(C)cc5[nH]ncc45)c4ccoc4c23)C[C@@H]1CC#N [Compound B35, 2-((2S)-4-(4-(5-chloro-6-methyl-1H-indazol-4-yl)-7-(((S)-1-methylpyrrolidin-2-yl)methoxy)furo[2,3-f]quinazolin-9-yl)-1-(2-fluoroacryloyl)piperazin-2-yl)acetonitrile]
- IC50 [1]: 0.0084 µM
